# Laboratory results as given in patent EP0624159B1, “PYRIDYL SUBSTITUTED IMIDAZOLES” (SMITHKLINE BEECHAM CORPORATION, priority 1992, dated 1993).
# Experiments:
# [1] = tested on: TNF production by Human Monocytes; assay: Inhibition of in vitro TNF production by LPS-stimulated human monocytes (radioimmunoassay / ELISA); assay type: cell-based; conditions: Monocyte; human peripheral blood monocytes, compound 45 minutes before LPS 100 ng/ml, 16-18 hours at 37°C
# Description: The effects of compounds of Formula (I) on the in vitro production of TNF by human monocytes was examined using the following protocol.
# Human peripheral blood monocytes were isolated and purified from either blood bank buffy coats or plateletpheresis residues, according to the procedure of Colotta, R. et al., J. Immunol., 132(2):936 (1984). The monocytes were plated at a density of 1 X 10^6 cells/ml medium/well in 24-well multi-dishes. […]
# The assay buffer consisted of 0.01M NaPO4, 0.15M NaCl, 0.025M EDTA and 0.1% sodium azide at pH 7.4. […] Tubes were centrifuged for 30 minutes at 2000 rpm, supernatants were carefully aspirated, and radioactivity associated with the pellets measured in a Beckman Gamma 5500 counter. […] The concentrations of TNF in the samples was read of a standard curve of rhTNF that was linear in the 157 to 20,000 pg/ml range.
# Iodination of rhTNF was performed using a modified chloramine-T method of Frolik et al., J. Biol. Chem., 259:10995-11000 (1984). […] The peak radioactivity containing fractions were pooled and stored at -20°C. […] Biological activity of iodinated TNF was measured by the L929 cytotoxicity assay of Neale, M.L. et al., Eur. J. Can. […]
# [2] = tested on: IL-1 production by human monocytes; assay: Inhibition of in vitro IL-1 production by LPS-stimulated human monocytes (IL-1 bioassay via EL-4 IL-2 secretion); assay type: cell-based; conditions: Monocyte; human peripheral blood monocytes, compound 1 hr before LPS 50 ng/ml, 24 hours at 37°C
# Description: The effects of compounds of Formula (I) on the in vitro production of IL-1 by human monocytes was examined using the following protocol.
# Bacterial lipopolysaccharide (LPS) was used to induce IL-1 production by human peripheral blood monocytes. IL-1 activity was measured by its ability to stimulate a Interleukin 2 (IL-2) producing cell line (EL-4) to secrete IL-2, in concert with A23187 ionophore, according to the method of Simon et al., J. Immunol. Methods, 84, 85, (1985). Human peripheral blood monocytes were isolated and purified from either fresh blood preparations from volunteer donors, or from blood bank buffy coats, according to the procedure of Colotta et al., J. Immunol., 132, 936 (1984). 1 X 10^6 of such monocytes were plated in 24-well plates at a concentration of 1-2 million/ml per well. The cells were allowed to adhere for 2 hours, after which time non-adherent cells were removed by gentle washing. Test compounds were then added to the cells for 1 hour (hr) before the addition of lipopolysaccharide (50 ng/ml), and the cultures were incubated at 37°C for an additional 24 hours. At the end of the incubation period, culture supernatants were removed and clarified of cells and all debris. Culture supernatants were immediately assayed for IL-1 biological activity in the manner described above, as well as for prostaglandin and/or leukotriene concentrations by radioimmunoassay.
SMILES,IC50 [1],IC50 [2]
"Fc1ccc(-c2nc(-c3ccccc3)cn2-c2ccncc2)cc1 [Example 1, 1-(4-Pyridyl)-2-(4-fluorophenyl)-4-phenylimidazole]",0.5 to 3.5 µM,0.1 to 5 µM
"Oc1ccc(-c2cn(-c3ccncc3)c(-c3ccc(F)cc3)n2)cc1 [Example 2, 1-(4-Pyridyl)-2-(4-fluorophenyl)-4-(4-hydroxyphenyl)imidazole]",0.5 to 3.5 µM,0.1 to 5 µM
"Cc1cn(-c2ccncc2)c(-c2ccc(F)cc2)n1 [Example 5, 1-(4-pyridyl)-2-(4-fluorophenyl)-4-methylimidazole]",,0.1 to 5 µM

# Second part, the compound after the results:
IC50 [1],IC50 [2],SMILES
,> 5 µM,"CSc1ccc(-c2cn(-c3ccncc3)c(-c3ccc(F)cc3)n2)cc1 [Example 3, 1-(4-Pyridyl)-2-(4-fluorophenyl)-4-(4-thiomethylphenyl) imidazole]"
,> 5 µM,"C[S+]([O-])c1ccc(-c2cn(-c3ccncc3)c(-c3ccc(F)cc3)n2)cc1 (stereo not shown) [Example 4, 1-(4-Pyridyl)-2-(4-fluorophenyl)-4-(4-methylsulfinylphenyl)imidazole]"
